{
  "source": "paper PMC8752738",
  "about": "“A propolis-derived small molecule ameliorates metabolic syndrome in obese mice by targeting the CREB/CRTC2 transcriptional complex” (Nature Communications, 2022)",
  "key": {"PPARα, RXRα or LXRα": {"tested_on": "PPARα, RXRα or LXRα", "experiment": "PPRE-LUC reporter in HEK293T", "type": "cell-based", "conditions": "for relative PPRE-LUC: individual replicates, Supp. Fig.6 c; for relative PPRE-LUC, mean: N=3", "protocol": "1 c) Luciferase reporter activity of PPRE-LUC (PPAR response element driven luciferase reporter) in\n2 HEK293T cell transfected with expression plasmids for Ppara, Rxra or Lxra with 8-h incubation of\n3 APC (10 µM). One of three independent experiments presented here. Data are represented as\n4 mean ± SEM. (n=3 per treatment). *, p < 0.05; **, p < 0.01; p values were determined by two-way"}, "G6pc promoter (G6p-Luc)": {"tested_on": "G6pc promoter (G6p-Luc)", "experiment": "G6p-Luc reporter in primary hepatocytes", "type": "cell-based, mouse", "conditions": "APC 10 μM, 8-h"}, "[1]": {"target": "T1, CREB-KID / CBP-KIX interaction (Homo sapiens, UniProt P16220)", "T1 construct": "CBP-KIX and CREB-KID domains as determined by two-hybrid assay; expressed in transfected cells; host or cells: HEK293T", "T1 sequence (P16220 87-146 limits assumed)": "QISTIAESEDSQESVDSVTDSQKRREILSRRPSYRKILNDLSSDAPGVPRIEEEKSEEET", "experiment": "Two-hybrid assay BD-CREB-KID / AD-CBP-KIX", "type": "cell-based", "conditions": "HEK293T, 10 μM, 8-h"}, "[2]": {"experiment": "Cholesterol, TG, NEFA and glycerol in serum and liver", "type": "in vivo, mouse", "design": "liver NEFA, Mean 2 (group mean) / Plasma VLDL cholesterol in db/db mice (VLDL-C) / Plasma VLDL cholesterol in db/db mice, group mean / TC in liver_CT2KO (total cholesterol in the liver of CRTC2-KO) / TC in liver_WT (total cholesterol in the liver) / TC in liver_WT, mean / TC in liver_WT, Mean Diff. VEH vs. drug / TC in liver_CRTC2KO, mean / TC in liver_CRTC2KO, Mean Diff. VEH vs. drug: unit not given here", "conditions": "for liver TG normolized by protein: individual animals; for plasma NEFA / plasma NEFA, Mean 2 (group mean): Figure 5g; for plasma NEFA, Mean 2 (group mean): vs 0mg/kg mean 1.02; for liver glycerol/protein: Figure 5i; for hepatic NEFA / liver NEFA, Mean 2 (group mean): Figure 5h; for liver NEFA, Mean 2 (group mean): vs 0mg/kg mean 165.9; for Plasma total cholesterol, Mean 1 (drug group): N 6", "protocol": "Serum total cholesterol (TC), LDL cholesterol (LDL-C), and HDL cholesterol (HDL-C) levels were detected using commercial kits (Beihua, China), and serum VLDL protein was determined by ELISA (Jiancheng, China).\nThe plasma TG and NEFA levels were determined using corresponding kits from Beihua (China) and WAKO (Japan), respectively. The TG levels of liver and WAT were tested by TG kit (Applygene, China). The NEFA in the liver and WAT were extracted by chloroform–methanol and then subjected to NEFA assay (WAKO)."}, "[3]": {"conditions": "APC-10mg/kg, individual mice, 10 mg/kg"}, "[4]": {"conditions": "APC-20mg/kg, individual mice, 20 mg/kg"}},
  "note": "Values joined by “and” are separate entries in the source; they are usually repeats but may differ in a detail not shown here. Equal entries are not always repeated. “Also recorded” adds a separate entry of the source.",
  "data": [
    {"smiles": "CC(C)=CCc1cc(C=CC(=O)O)cc(CC=C(C)C)c1O", "note": "[APC, 3,5-diprenyl-4-hydroxycinnamic acid]", "values": [
      {"measurement": "activity of PPRE-luc induced by PPARα, RXRα or LXRα", "setting": "PPARα, RXRα or LXRα; HEK293T, APC 10 µM, 8-h", "value": "did not alter"},
      {"measurement": "relative PPRE-LUC, Mean Diff. APC - Ctrl", "setting": "PPARα, RXRα or LXRα; overexpressed gene: LXRa", "value": 0.2098},
      {"measurement": "relative PPRE-LUC", "setting": "PPARα, RXRα or LXRα; overexpressed gene: LXRa", "value": "3.9435 and 4.3354 and 5.6775"},
      {"measurement": "relative PPRE-LUC, mean", "setting": "PPARα, RXRα or LXRα; overexpressed gene: LXRa", "value": 4.652},
      {"measurement": "relative PPRE-LUC, Mean Diff. APC - Ctrl", "setting": "PPARα, RXRα or LXRα; overexpressed gene: PPARa", "value": -2.353},
      {"measurement": "relative PPRE-LUC", "setting": "PPARα, RXRα or LXRα; overexpressed gene: PPARa", "value": "39.2490 and 43.4175 and 53.1308"},
      {"measurement": "relative PPRE-LUC, mean", "setting": "PPARα, RXRα or LXRα; overexpressed gene: PPARa", "value": 45.27},
      {"measurement": "relative PPRE-LUC, Mean Diff. APC - Ctrl", "setting": "PPARα, RXRα or LXRα; overexpressed gene: RXRa", "value": 3.509},
      {"measurement": "relative PPRE-LUC", "setting": "PPARα, RXRα or LXRα; overexpressed gene: RXRa", "value": "53.5690 and 51.6829 and 53.7514"},
      {"measurement": "relative PPRE-LUC, mean", "setting": "PPARα, RXRα or LXRα; overexpressed gene: RXRa", "value": 53},
      {"measurement": "relative PPRE-LUC, Mean Diff. APC - Ctrl", "setting": "PPARα, RXRα or LXRα; overexpressed gene: pcDNA", "value": -0.0701},
      {"measurement": "relative PPRE-LUC", "setting": "PPARα, RXRα or LXRα; overexpressed gene: pcDNA", "value": "0.7140 and 0.9259 and 1.1498"},
      {"measurement": "relative PPRE-LUC, mean", "setting": "PPARα, RXRα or LXRα; overexpressed gene: pcDNA", "value": 0.9299},
      {"measurement": "CRTC2-S171A induced G6p-luciferase activity", "setting": "G6pc promoter (G6p-Luc)", "value": "reduced"},
      {"measurement": "interaction of CBP-KIX and CREB-KID domains (two-hybrid)", "setting": "[1]", "value": "little effect; also recorded: neither APC nor A57 reduced"},
      {"measurement": "liver TG normolized by protein", "setting": "[2]; APC 10 mg/kg", "value": "86.3991 µM/mg and 171.894 µM/mg and 414.053 µM/mg and 275.641 µM/mg and 201.326 µM/mg"},
      {"measurement": "liver TG normolized by protein, group mean", "setting": "[2]; APC 10 mg/kg, n=5", "value": 229.9},
      {"measurement": "plasma NEFA", "setting": "[2]; APC 10 mg/kg, individual mice", "value": "1.19 mM (2×) and 1.033 mM and 1.294 mM and 1.373 mM"},
      {"measurement": "plasma NEFA, Mean 2 (group mean)", "setting": "[2]; APC 10mg/kg, n=5", "value": 1.216},
      {"measurement": "liver TG normolized by protein", "setting": "[2]; APC 20 mg/kg", "value": "85.5962 µM/mg and 137.868 µM/mg and 107.422 µM/mg and 121.195 µM/mg and 111.821 µM/mg"},
      {"measurement": "plasma NEFA", "setting": "[2]; APC 20 mg/kg, individual mice", "value": "1.765 mM and 1.686 mM and 1.451 mM and 1.242 mM and 1.507 mM"},
      {"measurement": "plasma NEFA, Mean 2 (group mean)", "setting": "[2]; APC 20mg/kg, n=5", "value": 1.53},
      {"measurement": "liver glycerol/protein", "setting": "[2]; [3]", "value": "49.7505 nM/mg and 67.3705 nM/mg and 57.1365 nM/mg and 57.0635 nM/mg and 49.612 nM/mg"},
      {"measurement": "hepatic NEFA", "setting": "[2]; [3]", "value": "39.07 mM/mg protein and 106.88 mM/mg protein and 150.80 mM/mg protein and 112.30 mM/mg protein and 101.67 mM/mg protein"},
      {"measurement": "liver NEFA, Mean 2 (group mean)", "setting": "[2]; APC-10mg/kg, n=5", "value": 102.1},
      {"measurement": "liver glycerol/protein", "setting": "[2]; [4]", "value": "43.0466 nM/mg and 45.5622 nM/mg and 43.2605 nM/mg and 44.1634 nM/mg and 41.762 nM/mg"},
      {"measurement": "hepatic NEFA", "setting": "[2]; [4]", "value": "39.34 mM/mg protein and 26.14 mM/mg protein and 65.42 mM/mg protein and 29.72 mM/mg protein and 45.95 mM/mg protein"},
      {"measurement": "liver NEFA, Mean 2 (group mean)", "setting": "[2]; APC-20mg/kg, n=5", "value": 41.31},
      {"measurement": "NEFA and glycerol levels in the liver", "setting": "[2]; DIO mice", "value": "reduced"},
      {"measurement": "NEFA levels in the plasma", "setting": "[2]; DIO mice", "value": "significantly enhanced"},
      {"measurement": "TG in serum and liver; TC, LDL-C, HDL-C, VLDL-C in serum", "setting": "[2]; DIO mice, i.p. daily 5 weeks", "value": "reduced"},
      {"measurement": "Plasma total cholesterol, Mean Diff. vs. VEH", "setting": "[2]; Figure 6h, CRTC2KO mice", "value": 5.091, "unit": "mg/dL"},
      {"measurement": "Plasma total cholesterol, Mean 1 (drug group)", "setting": "[2]; Figure 6h, CRTC2KO mice", "value": 223.9, "unit": "mg/dL"},
      {"measurement": "TC in plasma_CRTC2KO (plasma total cholesterol)", "setting": "[2]; Figure 6h, CRTC2KO mice, individual mice", "value": "238.201 mg/dL and 210.746 mg/dL and 206.493 mg/dL and 224.280 mg/dL and 219.253 mg/dL and 244.388 mg/dL"},
      {"measurement": "Plasma total cholesterol, Mean Diff. vs. VEH", "setting": "[2]; Figure 6h, WT mice", "value": -70.45, "unit": "mg/dL"},
      {"measurement": "Plasma total cholesterol, Mean 1 (drug group)", "setting": "[2]; Figure 6h, WT mice", "value": 208.1, "unit": "mg/dL"},
      {"measurement": "TC in plasma_WT (plasma total cholesterol)", "setting": "[2]; Figure 6h, WT mice, individual mice", "value": "239.748 mg/dL and 207.149 mg/dL and 201.100 mg/dL and 213.669 mg/dL and 202.239 mg/dL and 184.451 mg/dL"},
      {"measurement": "Plasma HDLC, group mean", "setting": "[2]; HF mice plasma, APC 10 mg/kg, N=5", "value": 108.7}
    ]}
  ]
}
